{"source": "patent US8389544B2", "about": "“Isoquinolone compounds as subtype-selective agonists for melatonin receptors MT1 and MT2” (The Hong Kong University of Science and Technology, priority 2007, dated 2013)", "key": {"MT1 receptor": {"molecular_target": "MT1 receptor (Homo sapiens, UniProt P48039)", "sequence (P48039 whole entry)": "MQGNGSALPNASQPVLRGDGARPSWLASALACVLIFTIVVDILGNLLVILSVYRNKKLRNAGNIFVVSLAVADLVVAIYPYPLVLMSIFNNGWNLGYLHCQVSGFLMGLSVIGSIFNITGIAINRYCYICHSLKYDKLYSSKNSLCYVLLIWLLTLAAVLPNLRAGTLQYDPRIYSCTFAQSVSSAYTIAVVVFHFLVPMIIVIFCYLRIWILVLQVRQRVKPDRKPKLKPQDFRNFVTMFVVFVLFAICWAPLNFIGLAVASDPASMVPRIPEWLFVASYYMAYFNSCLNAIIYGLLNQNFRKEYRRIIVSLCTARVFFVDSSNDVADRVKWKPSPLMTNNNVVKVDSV", "test": "FLIPR Ca2+ mobilization assay, MT1", "type": "cell-based", "design": "expressed in transfected cells; host or cells: COS-7 (monkey kidney fibroblast)", "conditions": "for % Response of 2-IMT: MT1, relative to 2-IMT response", "procedure": "(§1) 1. FLIPR Ca^2+ Mobilization Assay\n(§2) This assay indicates the ability of the novel compounds to activate MT1 and MT2 receptors by measuring downstream events of the activated receptor, in this case intracellular calcium mobilization.\n(§3) 1. Intracellular Ca^2+ Mobilization Assay Using Fluorometric Imaging Plate Reader (FLIPR®)\n(§4) An intracellular calcium mobilization assay was performed to screen the isoquinolone compounds against the two melatonin receptor subtypes, MT1 and MT2 on the fluorometric imaging plate reader (FLIPR®). In order to facilitate the screening process in a high-throughput manner, chimeric G proteins with the ability to couple to a range of GPCR as well as activate intracellular Ca^2+ were employed. The melatonin receptor subtype (either MT1 or MT2) was co-expressed with the G-protein chimeras in COS-7 (monkey kidney fibroblast) cells. During the assay, cells were exposed to the novel isoquinolone compounds and the corresponding change in fluorescence was measured. Both single point and dose-dependant assays were performed for each isoquinolone compound and based on the latter a dose response curve was generated and the corresponding EC50 for each receptor subtype determined.\n(§5) Specifically, COS-7 cells were seeded at a density of 20,000 cells/well into 96-well plates designed for FLIPR assays, using Opti-MEM with 10% FCS at a volume of 100 μl/well. Transfection was carried out using Lipofectamine 2000® reagent. In each well, 0.2 μg of the GPCR and G protein cDNA were diluted with 25 μl of Opti-MEM and 0.2 μl of Lipofectamine 2000® was diluted with another 25 μl of Opti-MEM. They were added to appropriate wells after the two components were mixed for 20 min.\n(§6) After 48 hours of incubation post-transfection, 50 μl of the transfection medium was removed from each well followed by the labelling of transfected cells with 100 μl of 2 μM Fluo-4 in calcium containing HBSS (Hank's balanced salt solution) with 20 mM HEPES (N-[2-hydroxyethyl]piperazine—N′-[2-ethanesulfonic acid]; pH 7.5) and 2.5 mM probenecid (anion exchanger inhibitor, freshly prepared) for 1 hour at 37° C. 70 μl of 3× drugs (isoquinolinone compounds encompassing the invention) were prepared and aliquoted into the corresponding wells in the V-well drug plate. Changes in fluorescence were detected in the FLIPR 96 with an excitation wavelength of 488 nm. The background fluorescence was adjusted to the range of 8,000 to 12,000 units by altering the laser power and exposure time (typically 0.4 W and 0.4 sec, respectively) for the FLIPR setup. 50 μl of each agonist solution was added to the corresponding wells and the fluorescent emission (between 510 and 560 nm) was monitored for 3 min. Results were expressed as change in fluorescent intensity units (FIU). Concentration-response curves were generated by determining the maximal change in FIU of each data set. Numerical analysis of the statistics and EC50 (median effective concentration) values were performed on GraphPad Prism version 3.03.\n(§7) Then the intracellular Ca^2+ mobilization assays using the Fluorometric Imaging Plate Reader (FLIPR®) were performed as described above."}, "MT2 receptor": {"molecular_target": "T1, MT2 receptor (Homo sapiens, UniProt P49286)", "T1 sequence (P49286 1-362)": "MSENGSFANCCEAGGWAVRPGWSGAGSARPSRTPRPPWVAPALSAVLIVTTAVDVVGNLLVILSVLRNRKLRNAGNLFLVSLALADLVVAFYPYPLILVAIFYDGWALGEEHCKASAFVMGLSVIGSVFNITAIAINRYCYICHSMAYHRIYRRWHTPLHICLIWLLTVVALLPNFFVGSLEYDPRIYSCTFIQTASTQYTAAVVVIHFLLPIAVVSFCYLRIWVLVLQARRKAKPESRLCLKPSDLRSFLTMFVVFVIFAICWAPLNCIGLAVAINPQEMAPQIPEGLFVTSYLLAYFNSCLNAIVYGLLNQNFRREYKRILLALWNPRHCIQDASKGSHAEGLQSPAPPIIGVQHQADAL", "test": "FLIPR Ca2+ mobilization assay, MT2", "type": "cell-based", "design": "expressed in transfected cells; host or cells: COS-7 (monkey kidney fibroblast)", "conditions": "for agonist character / receptor subtype selectivity in words: FLIPR results, MT1 versus MT2; for Emax: read-out: % Response of 2-IMT; for % Response of 2-IMT: MT2, relative to 2-IMT response", "procedure": "as §1, §2, §3, §4, §5, §6, §7"}, "[1]": {"conditions": "Table 1, MT1 in COS-7 cells with chimeric G protein, log value, negative, NSR = no significant response"}, "[2]": {"conditions": "Table 1, MT2 in COS-7 cells with chimeric G protein, log value, negative, NSR = no significant response"}, "[3]": {"conditions": "Table 1, MT2 in COS-7 cells with chimeric G protein, log value, negative, NSR = no significant response, read-out: Log(EC50) ± SEM (converted)"}, "[4]": {"conditions": "Table 1, MT1 in COS-7 cells with chimeric G protein, log value, negative, NSR = no significant response, read-out: Log(EC50) ± SEM (converted)"}}, "note": "Where two headings read alike, the source gives them in different places."}
{"smiles": "COc1ccc2c(=O)n(C)ccc2c1OCc1ccccc1", "note": "[IS005]", "values": [{"measurement": "% Response of 2-IMT", "setting": "MT1 receptor; Table 1", "result": 30.5, "unit": "%"}, {"measurement": "activity / activation at MT1 compared to 2-IMT", "setting": "MT1 receptor; running text b158, b160", "result": 31, "unit": "%"}, {"measurement": "EC50", "setting": "MT1 receptor; running text b158, read-out: EC50 MT1", "result": 5.81, "unit": "nM"}, {"measurement": "activity / efficacy at MT2 compared to 2-IMT", "setting": "MT2 receptor", "result": 63, "unit": "%"}, {"measurement": "agonist character / receptor subtype selectivity in words", "setting": "MT2 receptor", "result": "partial agonist"}, {"measurement": "Emax", "setting": "MT2 receptor", "result": 62.9, "unit": "%"}, {"measurement": "EC50", "setting": "MT2 receptor; read-out: EC50 MT2", "result": 48.5, "unit": "nM"}]}
{"smiles": "COc1ccc(O)c2c(=O)n(C)ccc12", "note": "[IS030]", "values": [{"measurement": "% Response of 2-IMT", "setting": "MT1 receptor; Table 1", "result": 67.5, "unit": "%"}, {"measurement": "Log(EC50) ± SEM", "setting": "MT1 receptor; [1]", "result": "−5.98 ± 0.04"}, {"measurement": "% Response of 2-IMT", "setting": "MT2 receptor; Table 1", "result": 39.4, "unit": "%"}, {"measurement": "Log(EC50) ± SEM", "setting": "MT2 receptor; [2]", "result": "−5.52"}]}
{"smiles": "COc1cc2ccn(C)c(=O)c2cc1OCCCI", "note": "[IS101, 7-(3-iodopropyloxyl)-6-methoxyl-2-methyl-1(2H)-isoquinolone]", "values": [{"measurement": "Log(EC50) ± SEM", "setting": "MT1 receptor; [1]", "result": "NSR"}, {"measurement": "EC50", "setting": "MT2 receptor; [3]", "result": 603, "unit": "nM"}, {"measurement": "Emax", "setting": "MT2 receptor", "result": 65.8, "unit": "%"}]}
{"smiles": "COc1cc2c(=O)n(C)ccc2cc1OCCCc1ccccc1", "note": "[IS017]", "values": [{"measurement": "Log(EC50) ± SEM", "setting": "MT1 receptor; [1]", "result": "NSR"}, {"measurement": "EC50", "setting": "MT2 receptor; [3]", "result": 107, "unit": "nM"}, {"measurement": "Emax", "setting": "MT2 receptor", "result": 107, "unit": "%"}]}
{"smiles": "COc1ccc(C(=O)COc2c(OC)ccc3c(=O)n(C)ccc23)cc1", "note": "[IS010]", "values": [{"measurement": "Log(EC50) ± SEM", "setting": "MT1 receptor; [1]", "result": "NSR"}, {"measurement": "% Response of 2-IMT", "setting": "MT2 receptor; Table 1", "result": 53.0, "unit": "%"}, {"measurement": "Log(EC50) ± SEM", "setting": "MT2 receptor; [2]", "result": "−6.35 ± 0.06"}]}
{"smiles": "COc1cc2c(=O)n(C)ccc2cc1O", "note": "[IS001, 6-Hydroxyl-7-methoxyl-2-methyl-1(2H)-isoquinolone]", "values": [{"measurement": "% Response of 2-IMT", "setting": "MT1 receptor; Table 1", "result": 71.9, "unit": "%"}, {"measurement": "EC50", "setting": "MT1 receptor; [4]", "result": 1580, "unit": "nM"}, {"measurement": "Log(EC50) ± SEM", "setting": "MT2 receptor; [2]", "result": "NSR"}]}
{"smiles": "C=CCOc1c(OC)ccc2c(=O)n(C)ccc12", "note": "[IS007]", "values": [{"measurement": "Log(EC50) ± SEM", "setting": "MT1 receptor; [1]", "result": "NSR"}, {"measurement": "EC50", "setting": "MT2 receptor; [3]", "result": 3.47, "unit": "nM"}, {"measurement": "Emax", "setting": "MT2 receptor", "result": 49.1, "unit": "%"}, {"measurement": "EC50", "setting": "MT2 receptor; read-out: EC50 MT2", "result": 3.51, "unit": "nM"}]}
{"smiles": "COc1cc2ccn(C)c(=O)c2cc1O", "note": "[IS002, 7-hydroxyl-6-methoxyl-2-methyl-1(2H)-isoquinolone]", "values": [{"measurement": "% Response of 2-IMT", "setting": "MT1 receptor; Table 1", "result": 31.7, "unit": "%"}, {"measurement": "EC50", "setting": "MT1 receptor; [4]", "result": 1740, "unit": "nM"}, {"measurement": "EC50", "setting": "MT2 receptor; [3]", "result": 871, "unit": "nM"}, {"measurement": "Emax", "setting": "MT2 receptor", "result": 47, "unit": "%"}]}
{"smiles": "COc1cc2ccn(C)c(=O)c2cc1OCc1ccccc1", "note": "[IS003]", "values": [{"measurement": "Log(EC50) ± SEM", "setting": "MT1 receptor; [1]", "result": "NSR"}, {"measurement": "Log(EC50) ± SEM", "setting": "MT2 receptor; [2]", "result": "NSR"}]}
{"smiles": "COc1ccc2c(=O)n(C)ccc2c1OCc1ccc(Br)cc1", "note": "[IS009]", "values": [{"measurement": "Log(EC50) ± SEM", "setting": "MT1 receptor; [1]", "result": "NSR"}, {"measurement": "agonist character / receptor subtype selectivity in words", "setting": "MT2 receptor", "result": "activated MT2 only"}, {"measurement": "EC50", "setting": "MT2 receptor; [3]", "result": 123, "unit": "nM"}, {"measurement": "Emax", "setting": "MT2 receptor", "result": 37.4, "unit": "%"}]}
{"smiles": "COc1cc2ccn(C)c(=O)c2cc1OCCCc1ccccc1", "note": "[IS013]", "values": [{"measurement": "% Response of 2-IMT", "setting": "MT1 receptor; Table 1", "result": 75.0, "unit": "%"}, {"measurement": "Log(EC50) ± SEM", "setting": "MT1 receptor; [1]", "result": "−5.22 ± 1.28"}, {"measurement": "% Response of 2-IMT", "setting": "MT2 receptor; Table 1", "result": 101.9, "unit": "%"}, {"measurement": "Log(EC50) ± SEM", "setting": "MT2 receptor; [2]", "result": "−6.00 ± 0.01"}]}
{"smiles": "Cn1ccc2ccc(O)c(O)c2c1=O", "note": "[IS037]", "values": [{"measurement": "Log(EC50) ± SEM", "setting": "MT1 receptor; [1]", "result": "NSR"}, {"measurement": "EC50", "setting": "MT2 receptor; [3]", "result": 525, "unit": "nM"}, {"measurement": "Emax", "setting": "MT2 receptor", "result": 42.1, "unit": "%"}]}
{"smiles": "COc1ccc2c(=O)n(C)ccc2c1OCCCc1ccccc1", "note": "[IS008]", "values": [{"measurement": "Log(EC50) ± SEM", "setting": "MT1 receptor; [1]", "result": "NSR"}, {"measurement": "agonist character / receptor subtype selectivity in words", "setting": "MT2 receptor", "result": "activated MT2 only"}, {"measurement": "EC50", "setting": "MT2 receptor; [3]", "result": 562, "unit": "nM"}, {"measurement": "Emax", "setting": "MT2 receptor", "result": 57.6, "unit": "%"}]}
{"smiles": "COc1ccc2c(=O)n(C)ccc2c1OCc1ccc(C(C)(C)C)cc1", "note": "[IS532]", "values": [{"measurement": "Log(EC50) ± SEM", "setting": "MT1 receptor; [1]", "result": "NSR"}, {"measurement": "% Response of 2-IMT", "setting": "MT2 receptor; Table 1", "result": 22.3, "unit": "%"}, {"measurement": "Log(EC50) ± SEM", "setting": "MT2 receptor; [2]", "result": "−5.57 ± 0.75"}]}
{"smiles": "COc1cc2c(=O)n(C)ccc2cc1OCc1ccccc1", "note": "[IS016]", "values": [{"measurement": "% Response of 2-IMT", "setting": "MT1 receptor; Table 1", "result": 65.3, "unit": "%"}, {"measurement": "EC50", "setting": "MT1 receptor; [4]", "result": 1350, "unit": "nM"}, {"measurement": "EC50", "setting": "MT2 receptor; [3]", "result": 2750, "unit": "nM"}, {"measurement": "Emax", "setting": "MT2 receptor", "result": 145, "unit": "%"}]}
{"smiles": "COc1cc2ccn(C)c(=O)c2cc1OCCCCCl", "note": "[IS098]", "values": [{"measurement": "Log(EC50) ± SEM", "setting": "MT1 receptor; [1]", "result": "NSR"}, {"measurement": "EC50", "setting": "MT2 receptor; [3]", "result": 6.17, "unit": "nM"}, {"measurement": "Emax", "setting": "MT2 receptor", "result": 44.7, "unit": "%"}]}
